Results reported in patent US20220144809A1, “COMPOUNDS AND METHODS FOR THE TARGETED DEGRADATION OF ANDROGEN RECEPTOR AND ASSOCIATED METHODS OF USE” (Arvinas Operations, Inc., priority 2020, published 2022).

These compounds were tested on Androgen Receptor (AR) (assay: Androgen Receptor ELISA assay (AR degradation in LNCaP and/or VCaP cells)). Settings: degradation of AR, 5 hours incubation, R1881 in media.
Format: cell-based
Experimental: Assay for Testing AR Degradation Driven by Compounds of the Present Disclosure.
Androgen Receptor ELISA Assay. Compounds were evaluated in the following assay in LNCaP and/or VCaP cells utilizing similar protocols. The protocols used with VCaP cells are described below. The androgen receptor ELISA assay was performed using PathScan AR Sandwich ELISA (Cell Signaling Catalog#12850) according to the following assay steps.
VCaP cells were seeded at 40,000 cells/well at a volume of 100 μL/well in VCaP assay medium [Phenol red free RPMI (Gibco Cat#11835-030); 5% Charcoal Stripped (Dextran treated) FBS (Omega Scientific, Cat#FB-04); 1% penstrep (Life Technologies, Gibco Cat#: 10378-016)] in Corning 3904 plates. The cells were grown for a minimum of 3 days.
First, cells were dosed with compounds diluted in […]—in a polypropylene plate avoiding the use of outer columns according to the following protocol: (1)(i) 1000× stock plate in DMSO was made; (ii) 20 mM stock diluted 1/6.7 with DMSO (5 μL+28.3 μL DMSO)=3 mM into row H; (iii) serial dilutions in ½ log doses (10 μL of bifunctional compound+20 μL DMSO) was performed from row H towards row B with row A being reserved for DMSO; (iv) 7 doses total (final concentration in this 1000× plate will be 3 mM, 1 mM, 333 μM, 111 μM, etc). (2)(i) A 10× stock plate in media was made; (ii) 2.5 μL of the 1000× stock was trasnferred to a new 10× stock plate (use 12 channel pipet, start at A (DMSO control) work thru H. When 247.5 μL of media was added to this plate, it served as a 10× stock; (iii) made media+1 nM R1881 for making 10× stock plate; (iv) added 247.5 μL of media with 1 nM R1881 to each well of the 10× stock plate, mix.
Then 22 μL of 10× stock was added to cells and incubated for 5 hours. 1× Cell Signaling Cell lysis buffer was made (Catalogue #9803; comes with the kit) to have […], and was kept on ice. Media was aspirated, and 100 μL 1× cell lysis buffer/well was added. The cells were placed on a shaker located in a cold room for 10 minutes and shaken at speed 7. The lysate mixture was mix and 20 μL transferred to 100 μl of Diluent in ELISA plate (0.15 μg/ml-0.075 μg/ml). The lysate-diluent mixture was store at 4° C. overnight on a shaker located in a cold room at speed 5 (gentle swirl).
The lysate-diluent mixture was shaken for 30 minutes at 37° C. The mouse AR antibody, anti-mouse antibody, TMB, and STOP solution were allowed to come to room temperature. The 1×ELISA buffer included in kit was made and loaded in reservoir. Media from the plate was discarded, the ELISA plate was tapped hard on paper towel, and washed 4×200 μl ELISA wash buffer using a plate washer for the first three washes and an eight channel aspirator for the fourth wash to more thoroughly aspirate the solution.
Next, 100 μL/well of mouse AR detection Ab was added; the plate was covered and shaken at 37° C. for 1 hour; media was discarded from the plates, the plates tapped on a paper towel and washed four times with 200 μL ELISA wash buffer with a plate washer for the first three washes and an eight channel aspirator for the fourth wash; 100 μL/well of anti-mouse—HRP conjugated Ab (comes with the kit) was added; the plates wascover and shaken at 37° C. for 30 minutes; the TMB reagent was allowed to come to room temperature; the media from the plate was discarded, the plates tapped on paper towel, and washed four times with 200 μL ELISA wash buffer with a plate washer for the first three washes and an eight channel aspirator for the fourth wash; plates were tapped on paper towl; 100 μL TMB was added to each well and the plate shaken for 2 minutes—while watching color. STOP solution (100 μL) was added when light blue color developed. The plates were shake and read at 450 nm.
Data was analyzed and plotted using GraphPad Prism software. Exemplary compounds of Table 1 were assayed and the data shown below in Table 2. […]

Row | SMILES | DC50 | Dmax Code
1 | CC(C)N(CC1CCN(Cc2ccc(-n3c(=O)n(-c4ccc(C#N)c(C(F)(F)F)c4)c4ccccc43)cc2)CC1)[C@H]1C[C@H](Oc2ccc3c(c2)C(=O)N(C2CCC(=O)NC2=O)C3=O)C1 (stereo partly shown) [Compound 15, 4-(3-(4-((4-((((1r,3r)-3-((2-(2,6-dioxopiperidin-3-yl)-1,3-dioxoisoindolin-5-yl)oxy)cyclobutyl)(isopropyl)amino)methyl)piperidin-1-yl)methyl)phenyl)-2-oxo-2,3-dihydro-1H-benzo[d]imidazol-1-yl)-2-(trifluoromethyl)benzonitrile] | 1 to 10 nM | C (C<50)
2 | CCN(CC1CCN(CCOc2ccc(CN3C(=S)N(c4ccc(C#N)c(C(F)(F)F)c4)C(=O)C3(C)C)cn2)CC1)[C@H]1C[C@H](Oc2ccc3c(c2)C(=O)N(C2CCC(=O)NC2=O)C3=O)C1 (stereo partly shown) [Compound 16, 4-(3-((6-(2-(4-((((1r,3r)-3-((2-(2,6-dioxopiperidin-3-yl)-1,3-dioxoisoindolin-5-yl)oxy)cyclobutyl)(ethyl)amino)methyl)piperidin-1-yl)ethoxy)pyridin-3-yl)methyl)-4,4-dimethyl-5-oxo-2-thioxoimidazolidin-1-yl)-2-(trifluoromethyl)benzonitrile] | 1 to 10 nM | C (C<50)
3 | CC(C)N(CC1CCN(c2ccc(CCn3c(=O)n(-c4ccc(C#N)c(C(F)(F)F)c4)c4ccccc43)cc2)CC1)[C@H]1C[C@H](Oc2ccc3c(c2)C(=O)N(C2CCC(=O)NC2=O)C3=O)C1 (stereo partly shown) [Compound 17, 4-(3-(4-(4-((((1r,3r)-3-((2-(2,6-dioxopiperidin-3-yl)-1,3-dioxoisoindolin-5-yl)oxy)cyclobutyl)(isopropyl)amino)methyl)piperidin-1-yl)phenethyl)-2-oxo-2,3-dihydro-1H-benzo[d]imidazol-1-yl)-2-(trifluoromethyl)benzonitrile] | 10 to 100 nM | C (C<50)
4 | Cc1c(C#N)c(-c2ccc(C#N)cc2)c(C)n1Cc1ccc(N2CCC(CN3CCN(c4ccc5c(c4)C(=O)N(C4CCC(=O)NC4=O)C5=O)CC3)CC2)cc1 (stereo not shown) [Compound 18, 4-(4-cyanophenyl)-1-(4-(4-((4-(2-(2,6-dioxopiperidin-3-yl)-1,3-dioxoisoindolin-5-yl)piperazin-1-yl)methyl)piperidin-1-yl)benzyl)-2,5-dimethyl-1H-pyrrole-3-carbonitrile] | ≥ 100 nM | C (C<50)
5 | Cc1c(C#N)c(-c2ccc(C#N)cc2)c(C)n1Cc1ccc(OCCN2CCC(CN3CCN(c4ccc5c(c4)C(=O)N(C4CCC(=O)NC4=O)C5=O)CC3)CC2)cc1 (stereo not shown) [Compound 20, 4-(4-cyanophenyl)-1-(4-(2-(4-((4-(2-(2,6-dioxopiperidin-3-yl)-1,3-dioxoisoindolin-5-yl)piperazin-1-yl)methyl)piperidin-1-yl)ethoxy)benzyl)-2,5-dimethyl-1H-pyrrole-3-carbonitrile] | ≥ 100 nM | C (C<50)
6 | Cc1c(C#N)c(-c2ccc(C#N)cc2)c(C)n1Cc1ccc(OCCOCCOCCN2CCC(CN3CCN(c4ccc5c(c4)C(=O)N(C4CCC(=O)NC4=O)C5=O)CC3)CC2)cc1 (stereo not shown) [Compound 21, 4-(4-cyanophenyl)-1-(4-(2-(2-(2-(4-((4-(2-(2,6-dioxopiperidin-3-yl)-1,3-dioxoisoindolin-5-yl)piperazin-1-yl)methyl)piperidin-1-yl)ethoxy)ethoxy)ethoxy)benzyl)-2,5-dimethyl-1H-pyrrole-3-carbonitrile] | ≥ 100 nM | C (C<50)
7 | CC(C)N(CC1CCN(CCCCn2c(=O)n(-c3ccc(C#N)c(C(F)(F)F)c3)c3ccccc32)CC1)[C@H]1C[C@H](Oc2ccc3c(c2)C(=O)N(C2CCC(=O)NC2=O)C3=O)C1 (stereo partly shown) [Compound 24, 4-(3-(4-(4-((((1r,3r)-3-((2-(2,6-dioxopiperidin-3-yl)-1,3-dioxoisoindolin-5-yl)oxy)cyclobutyl)(isopropyl)amino)methyl)piperidin-1-yl)butyl)-2-oxo-2,3-dihydro-1H-benzo[d]imidazol-1-yl)-2-(trifluoromethyl)benzonitrile] | ≥ 100 nM | C (C<50)

Second part, led by results:

Row | DC50 | SMILES | Dmax Code
8 | ≥ 100 nM | Cc1c(C#N)c(-c2ccc(C#N)cc2)c(C)n1Cc1ccc(OCCCN2CCC(CN3CCN(c4ccc5c(c4)C(=O)N(C4CCC(=O)NC4=O)C5=O)CC3)CC2)cc1 (stereo not shown) [Compound 19, 4-(4-cyanophenyl)-1-(4-(3-(4-((4-(2-(2,6-dioxopiperidin-3-yl)-1,3-dioxoisoindolin-5-yl)piperazin-1-yl)methyl)piperidin-1-yl)propoxy)benzyl)-2,5-dimethyl-1H-pyrrole-3-carbonitrile] | C (C<50)
9 | ≥ 100 nM | Cc1c(C#N)c(-c2ccc(C#N)cc2)c(C)n1Cc1ccc(OCCOCCN2CCC(CN3CCN(c4ccc5c(c4)C(=O)N(C4CCC(=O)NC4=O)C5=O)CC3)CC2)cc1 (stereo not shown) [Compound 22, 4-(4-cyanophenyl)-1-(4-(2-(2-(4-((4-(2-(2,6-dioxopiperidin-3-yl)-1,3-dioxoisoindolin-5-yl)piperazin-1-yl)methyl)piperidin-1-yl)ethoxy)ethoxy)benzyl)-2,5-dimethyl-1H-pyrrole-3-carbonitrile] | C (C<50)
10 | ≥ 100 nM | CC(C)N(CC1CCN(CCCn2c(=O)n(-c3ccc(C#N)c(C(F)(F)F)c3)c3ccccc32)CC1)[C@H]1C[C@H](Oc2ccc3c(c2)C(=O)N(C2CCC(=O)NC2=O)C3=O)C1 (stereo partly shown) [Compound 23, 4-(3-(3-(4-((((1r,3r)-3-((2-(2,6-dioxopiperidin-3-yl)-1,3-dioxoisoindolin-5-yl)oxy)cyclobutyl)(isopropyl)amino)methyl)piperidin-1-yl)propyl)-2-oxo-2,3-dihydro-1H-benzo[d]imidazol-1-yl)-2-(trifluoromethyl)benzonitrile] | C (C<50)
11 | ≥ 100 nM | CC(C)N(CC1CCN(c2ccc(Cn3c(=O)n(-c4ccc(C#N)c(C(F)(F)F)c4)c4ccccc43)cc2)CC1)[C@H]1C[C@H](Oc2ccc3c(c2)C(=O)N(C2CCC(=O)NC2=O)C3=O)C1 (stereo partly shown) [Compound 25, 4-(3-(4-(4-((((1r,3r)-3-((2-(2,6-dioxopiperidin-3-yl)-1,3-dioxoisoindolin-5-yl)oxy)cyclobutyl)(isopropyl)amino)methyl)piperidin-1-yl)benzyl)-2-oxo-2,3-dihydro-1H-benzo[d]imidazol-1-yl)-2-(trifluoromethyl)benzonitrile] | C (C<50)
